Patent publication US11498928B2, “Macrocyclic spiroethers as Mcl-1 inhibitors” (ASCENTAGE PHARMA (SUZHOU) CO., LTD., priority 2019, dated 2022)
Like-named read-outs stand apart in the source and are kept apart here.

Columns and labels:
[1] = from CC(=O)OC(C1=C[C@H]([C@H](C)[C@@H](C)S(N)(=O)=O)C1)[C@@H]1CC[C@H]1CN1C[C@@]2(CCCc3c2ccc(Cl)c3F)COc2ccc(C(=O)O)nc21; amide bond; T3P, DIPEA, DMAP; DCM; 24.6 mM; 2.0 h
NCI-H929 cells = assay: Cell viability assay (NCI-H929 cells), CCK-8; format: cell-based; settings: 5% FBS
Summary of the method: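 NCI-H929 cells from ATCC were seeded at 20000 cells/well in 95 μL of culture medium in 96-well plates and grown for 4 hrs. Compounds, serially diluted in DMSO and further diluted in medium, were added as 5 μL, and cells were incubated for 24 hrs at 37° C. with 5% CO2. Viability was measured with CCK-8.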

OPM-2 cells = assay: Cell viability assay (OPM-2 cells), CCK-8; format: cell-based; settings: 5% FBS
Summary of the method: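 OPM-2 myeloma cells (20000/well) exposed to serially diluted compound for 24 h at 37 °C, 5% CO2, then incubated 4 h with CCK-8 and read at 450 nm. Readings normalized to vehicle; IC50 from nonlinear regression.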

[2] = biological target: T1, Mcl-1 protein (residues 171-323) (Homo sapiens, UniProt Q07820); assay: Inhibition of Mcl-1 by fluorescence polarization (FP) competitive binding assay with FAM-Bid tracer; settings: 2 nM FAM-Bid, 20 nM Mcl-1, 30 min
T1 construct: Tag-free Mcl-1 protein (residues 171-323) was used in the FP assay
T1 sequence (Q07820 171-323): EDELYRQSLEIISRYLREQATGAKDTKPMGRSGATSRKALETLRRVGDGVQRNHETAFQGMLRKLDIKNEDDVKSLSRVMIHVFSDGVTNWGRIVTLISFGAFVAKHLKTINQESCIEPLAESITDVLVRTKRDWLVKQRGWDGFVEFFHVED
Summary of the method: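 Tag-free Mcl-1 (20 nM) with 2 nM FAM-Bid peptide in PBS, 0.01% BGG, 0.01% Triton X-100, 5% DMSO, 30 min at room temperature. FP read at Ex 485/Em 528 nm. IC50 from 10-point curves normalised to DMSO and no-protein controls.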

[3] = Pharmacokinetic studies in mice (IV and PO); format: in vivo; settings: for F: PO 10 mg/kg vs IV 2 mg/kg; for AUC(0-inf) / AUC(0-t) / clearance / half-life / Cmax / MRT last / Vd / Tmax / Vd/F: mouse, plasma; for MRT last: read-out: MRT0-last; for Vd: read-out: Vss; for Vd/F: read-out: Vz/F
Experimental: Administration: Mice in the IV group was dosed at 2 mg/kg (20% PEG 400+10% Cremophor EL+70% PBS 7.4) via tail vein injection (N=9). Mice in the PO group was dosed at 10 mg/kg (20% PEG 400+10% Cremophor EL+70% PBS 7.4) via oral gavage (N=9). All the mice were fasted overnight before dosing and had free access to food 4 hr post dosing.
Sampling: The animal was restrained manually at the designated time points (0.083, 0.25, 0.5, 1, 2, 4, 6, 8 and 24 hr), approximately 110 μL of blood sample was collected via retro-orbital puncture or cardiac puncture for terminal bleeding under the anesthesia with Isoflurane inhalation into K2EDTA tubes. The blood samples were maintained in wet ice first and centrifuged to obtain plasma (2000 g, 4° C., 5 min) within 15 minutes post sampling. All the plasma samples were stored at approximately −70° C. until analysis.

[4] = IV 2 mg/kg, read-out: C0/Cmax (C0)
[5] = PO 10 mg/kg, read-out: C0/Cmax (Cmax)

IC50 (NCI-H929 cells; Homo sapiens, NCI-H929, 24 h)	IC50 [2]	F [3]	AUC(0-inf) ([3]; IV 2 mg/kg)	AUC(0-t) ([3]; IV 2 mg/kg)	clearance ([3]; IV 2 mg/kg)	half-life ([3]; IV 2 mg/kg)	Cmax [3, 4]	MRT last ([3]; IV 2 mg/kg)	Vd ([3]; IV 2 mg/kg)	AUC(0-inf) ([3]; PO 10 mg/kg)	AUC(0-t) ([3]; PO 10 mg/kg)	Tmax ([3]; PO 10 mg/kg)	half-life ([3]; PO 10 mg/kg)	Cmax [3, 5]	MRT last ([3]; PO 10 mg/kg)	Vd/F ([3]; PO 10 mg/kg)	Structure (SMILES)	IC50 (OPM-2 cells; Homo sapiens, OPM-2, 24 h)	further results
–	–	–	–	–	–	–	–	–	–	–	–	–	–	–	–	–	CC(=O)OC1C2=C[C@@H](C2)[C@H](C)[C@@H](C)S(=O)(=O)NC(=O)c2ccc3c(n2)N(C[C@@H]2CC[C@@H]12)C[C@@]1(CCCc2c1ccc(Cl)c2F)CO3 (stereo partly shown)	–	ring closure, yield of all isomers [1]: 100%
0.089 µM	0.021 µM	57.2%	5200 ng·h/mL	4780 ng·h/mL	6.4 mL/min/kg	6.5 h	861 ng/mL	6.2 h	3.2 L/kg	14900 ng·h/mL	14400 ng·h/mL	4 h	4.5 h	1270 ng/mL	6.6 h	4.4 L/kg	CO[C@H]1C2=CC(C)(C2)[C@H](C)CS(=O)(=O)NC(=O)c2ccc3c(c2)N(C[C@@H]2CC[C@H]21)C[C@@]1(CCCc2cc(Cl)ccc21)CO3 (mixture of isomers) [13 (mixture)]	0.348 µM	–
0.037 µM	0.009 µM	70.5%	2440 ng·h/mL	2380 ng·h/mL	13.6 mL/min/kg	1.6 h	1260 ng/mL	1.9 h	1.7 L/kg	8620 ng·h/mL	8360 ng·h/mL	2 h	4.9 h	1690 ng/mL	4.5 h	8.3 L/kg	COCCO[C@H]1C2=CC(C2)[C@H](C)[C@@H](C)S(=O)(=O)NC(=O)c2ccc3c(c2)N(C[C@@H]2CC[C@H]21)C[C@@]1(CCCc2cc(Cl)ccc21)CO3 (mixture of isomers) [16 (mixture)]	0.136 µM	–
2 µM	0.012 µM	60.2%	7500 ng·h/mL	7350 ng·h/mL	4.45 mL/min/kg	6.7 h	6090 ng/mL	2.4 h	0.8 L/kg	22600 ng·h/mL	22300 ng·h/mL	1 h	4.9 h	4860 ng/mL	3.6 h	3.1 L/kg	CO[C@H]1C2=CC(C2)[C@H](C)[C@@H](C)S(=O)(=O)NC(=O)c2ccc3c(c2)N(C[C@@H]2CC[C@H]21)C[C@@]1(CCCc2cc(Cl)cc(F)c21)CO3 (single isomer, unassigned) [20 (isomer 1)]	2.69 µM	–
–	0.0047 µM	134.6%	4720 ng·h/mL	4690 ng·h/mL	7.07 mL/min/kg	3.6 h	1510 ng/mL	3.9 h	1.7 L/kg	31800 ng·h/mL	31400 ng·h/mL	2 h	3.6 h	3920 ng/mL	5.6 h	1.6 L/kg	CO[C@H]1C2=CC(C2)[C@H](C)CS(=O)(=O)NC(=O)c2ccc3c(c2)N(C[C@@H]2CC[C@H]21)C[C@@]1(CCCc2cc(Cl)ccc21)CO3 (single isomer, unassigned) [Cpd. No. 14 (Isomer 1)]	–	IC50 (NCI-H929 cells; 24 h): 0.026 µM; IC50 (OPM-2 cells; 24 h): 0.208 µM
0.018 µM	0.0097 µM	84.7%	7870 ng·h/mL	7580 ng·h/mL	4.23 mL/min/kg	4.9 h	2740 ng/mL	4.8 h	1.5 L/kg	33300 ng·h/mL	33000 ng·h/mL	2 h	3.4 h	2720 ng/mL	6.1 h	1.5 L/kg	CO[C@H]1C2=C[C@@H](C2)[C@H](C)[C@@H](C)S(=O)(=O)NC(=O)c2ccc3c(c2)N(C[C@@H]2CC[C@H]21)C[C@@]1(CCCc2cc(Cl)ccc21)CO3 (single isomer, unassigned) [Cpd. No. 15 (isomer 1)]	0.084 µM	–
1 µM	0.0066 µM	94.1%	8780 ng·h/mL	8740 ng·h/mL	3.8 mL/min/kg	3.7 h	5160 ng/mL	2.7 h	0.6 L/kg	41300 ng·h/mL	41200 ng·h/mL	2 h	2.8 h	5260 ng/mL	4.9 h	9.9 L/kg	CO[C@H]1C2=CC(C2)[C@H](C)[C@@H](C)S(=O)(=O)NC(=O)c2ccc3c(c2)N(C[C@@H]2CC[C@H]21)C[C@@]1(CCCc2cc(Cl)c(F)cc21)CO3 (single isomer, unassigned) [Cpd. No. 21 (isomer 1)]	1.12 µM	–
0.016 µM	0.015 µM	–	–	–	–	–	–	–	–	–	–	–	–	–	–	–	C[C@@H]1[C@@H](C)S(=O)(=O)NC(=O)c2ccc3c(c2)N(C[C@@H]2CC[C@H]2[C@@H](OCCN2CCN(C)CC2=O)C2=C[C@H]1C2)C[C@@]1(CCCc2c1ccc(Cl)c2F)CO3 [compound 91, (1S,11′R,12′S,13′R,16′R,16a′R,18a′R)-6-chloro-5-fluoro-11′,12′-dimethyl-16′-(2-(4-methyl-2-oxopiperazin-1-yl)ethoxy)-3,4,12′,13′,16′,16a′,17′,18′,18a′,19′-decahydro-1′H,2H,3′H,11′H-spiro[naphthalene-1,2′-[5,7]etheno[13,15]methanocyclobuta[i][1,4]oxazepino[3,4-f][1]thia[2,7]diazacyclohexadecin]-8′(9′H)-one 10′,10′-dioxide]	0.059 µM	–
0.059 µM	0.014 µM	–	–	–	–	–	–	–	–	–	–	–	–	–	–	–	C[C@@H]1[C@@H](C)S(=O)(=O)NC(=O)c2ccc3c(c2)N(C[C@@H]2CC[C@H]2[C@@H](OCCN2CCCS2(=O)=O)C2=C[C@H]1C2)C[C@@]1(CCCc2c1ccc(Cl)c2F)CO3 [compound 92, (1S,11′R,12′S,13′R,16′R,16a′R,18a′R)-6-chloro-16′-(2-(1,1-dioxidoisothiazolidin-2-yl)ethoxy)-5-fluoro-11′,12′-dimethyl-3,4,12′,13′,16′,16a′,17′,18′,18a′,19′-decahydro-1′H,2H,3′H,11′H-spiro[naphthalene-1,2′-[5,7]etheno[13,15]methanocyclobuta[i][1,4]oxazepino[3,4-f][1]thia[2,7]diazacyclohexadecin]-8′(9′H)-one 10′,10′-dioxide]	0.044 µM	–
0.011 µM	0.019 µM	–	–	–	–	–	–	–	–	–	–	–	–	–	–	–	CO[C@@]1(CN2CCC(N3CCOCC3)CC2)C2=C[C@@H](C2)[C@H](C)[C@@H](C)S(=O)(=O)NC(=O)c2ccc3c(n2)N(C[C@@H]2CC[C@H]21)C[C@@]1(CCCc2c1ccc(Cl)c2F)CO3 [compound 93, (1S,11′R,12′S,13′R,16′R,16a′R,18a′R)-6-chloro-5-fluoro-16′-methoxy-11′,12′-dimethyl-16′-((4-morpholinopiperidin-1-yl)methyl)-3,4,12′,13′,16′,16a′,17′,18′,18a′,19′-decahydro-1′H,2H,3′H,11′H-spiro[naphthalene-1,2′-[5,7]etheno[13,15]methanocyclobuta[i][1,4]oxazepino[3,4-f][1]thia[2,5,7]triazacyclohexadecin]-8′(9′H)-one 10′,10′-dioxide]	0.071 µM	–
0.2 µM	0.048 µM	–	–	–	–	–	–	–	–	–	–	–	–	–	–	–	C[C@@H]1[C@@H](C)S(=O)(=O)NC(=O)c2ccc3c(c2)N(C[C@@H]2CC[C@H]2[C@@H](OCc2ccccn2)C2=C[C@H]1C2)C[C@@]1(CCCc2c1ccc(Cl)c2F)CO3 [compound 94, (1S,11′R,12′S,13′R,16′R,16a′R,18a′R,E)-6-chloro-5-fluoro-11′,12′-dimethyl-16′-(pyridin-2-ylmethoxy)-3,4,12′,13′,16′,16a′,17′,18′,18a′,19′-decahydro-1′H,2H,3′H,11′H-spiro[naphthalene-1,2′-[5,7]etheno[13,15]methanocyclobuta[i][1,4]oxazepino[3,4-f][1]thia[2,7]diazacyclohexadecin]-8′(9′H)-one 10′,10′-dioxide]	0.096 µM	–
0.044 µM	0.023 µM	–	–	–	–	–	–	–	–	–	–	–	–	–	–	–	C[C@@H]1[C@@H](C)S(=O)(=O)NC(=O)c2ccc3c(c2)N(C[C@@H]2CC[C@H]2[C@@H](OCCN2CCC(F)(F)CC2)C2=C[C@H]1C2)C[C@@]1(CCCc2c1ccc(Cl)c2F)CO3 [compound 95]	0.042 µM	–
